In ChEMBL document CHEMBL5537115, “New broad-spectrum and potent antibacterial agents with dual-targeting mechanism: Promoting FtsZ polymerization and disrupting bacterial membranes” (Eur J Med Chem, 2024):
Values after ≈ are worked out from the molar mass of the structure shown.

What was measured:
Format in all cases: functional
[1] = test system: Staphylococcus aureus; experiment: Antibacterial activity against erythromycin-susceptible Staphylococcus aureus ATCC25923 incubated for 18 to 24 hrs; conditions: time 18-24 hrs
[2] = test system: Staphylococcus epidermidis; experiment: Antibacterial activity against penicillin-resistant Staphylococcus epidermidis clinical isolate assessed as bacterial growth inhibition incubated for 20 hrs by CLSI based broth microdilution method
[3] = test system: Escherichia coli; experiment: Antibacterial activity against penicillin-susceptible Escherichia coli ATCC25922 assessed as bacterial growth inhibition incubated for 20 hrs by CLSI based broth microdilution method
[4] = test system: Bacillus subtilis; experiment: Antibacterial activity against penicillin-susceptible Bacillus subtilis ATCC9372 incubated for 18 to 24 hrs; conditions: time 18-24 hrs
[5] = test system: Acinetobacter baumannii; experiment: Antibacterial activity against Acinetobacter baumannii ATCC19606 incubated for 18 to 24 hrs; conditions: time 18-24 hrs
[6] = test system: Bacillus pumilus; experiment: Antibacterial activity against penicillin-susceptible Bacillus pumilus CMCC63202 assessed as bacterial growth inhibition incubated for 20 hrs by CLSI based broth microdilution method
[7] = test system: Streptococcus pyogenes; experiment: Antibacterial activity against erythromycin-susceptible Streptococcus pyogenes 1 assessed as bacterial growth inhibition incubated for 20 hrs by CLSI based broth microdilution method
[8] = test system: Klebsiella pneumoniae; experiment: Antibacterial activity against Klebsiella pneumoniae ATCC BAA-1902 assessed as bacterial growth inhibition incubated for 20 hrs by CLSI based broth microdilution method
[9] = test system: Enterococcus faecium; experiment: Antibacterial activity against vancomycin-susceptible Enterococcus faecium ATCC19434 assessed as bacterial growth inhibition incubated for 20 hrs by CLSI based broth microdilution method
[10] = test system: Staphylococcus aureus; experiment: Antibacterial activity against Staphylococcus aureus clinical isolate incubated for 18 to 24 hrs; conditions: time 18-24 hrs
[11] = test system: Acinetobacter baumannii; experiment: Antibacterial activity against Acinetobacter baumannii ATCC19606 assessed as bacterial growth inhibition incubated for 20 hrs by CLSI based broth microdilution method
[12] = test system: Enterococcus faecium; experiment: Antibacterial activity against vancomycin-resistant Enterococcus faecium ATCC51559 assessed as bacterial growth inhibition incubated for 20 hrs by CLSI based broth microdilution method
[13] = test system: Escherichia coli; experiment: Antibacterial activity against wild-type Escherichia coli BW25113 assessed as bacterial growth inhibition incubated for 20 hrs by CLSI based broth microdilution method
[14] = test system: Streptococcus pyogenes; experiment: Antibacterial activity against erythromycin-resistant Streptococcus pyogenes 2 clinical isolate assessed as bacterial growth inhibition incubated for 20 hrs by CLSI based broth microdilution method
[15] = test system: Staphylococcus aureus; experiment: Antibacterial activity against methicillin-resistant Staphylococcus aureus ATCC43300 incubated for 18 to 20 hrs; conditions: time 18-20 hrs
[16] = test system: Bacillus subtilis; experiment: Antibacterial activity against penicillin-susceptible Bacillus subtilis ATCC9372 assessed as bacterial growth inhibition incubated for 20 hrs by CLSI based broth microdilution method
[17] = test system: Staphylococcus aureus; experiment: Antibacterial activity against methicillin-resistant Staphylococcus aureus ATCC43300 assessed as bacterial growth inhibition incubated for 20 hrs by CLSI based broth microdilution method
[18] = test system: Staphylococcus aureus; experiment: Antibacterial activity against penicillin-resistant Staphylococcus aureus ATCC31007 assessed as bacterial growth inhibition incubated for 20 hrs by CLSI based broth microdilution method
[19] = test system: Enterococcus faecalis; experiment: Antibacterial activity against vancomycin-resistant Enterococcus faecalis ATCC51299 assessed as bacterial growth inhibition incubated for 20 hrs by CLSI based broth microdilution method
[20] = test system: Staphylococcus aureus; experiment: Antibacterial activity against Staphylococcus aureus clinical isolate assessed as bacterial growth inhibition incubated for 20 hrs by CLSI based broth microdilution method
[21] = test system: Staphylococcus aureus; experiment: Antibacterial activity against erythromycin-susceptible Staphylococcus aureus ATCC25923 assessed as bacterial growth inhibition incubated for 20 hrs by CLSI based broth microdilution method
[22] = test system: Enterococcus faecalis; experiment: Antibacterial activity against vancomycin-susceptible Enterococcus faecalis ATCC29212 assessed as bacterial growth inhibition incubated for 20 hrs by CLSI based broth microdilution method

| SMILES | MIC [2] | MIC [3] | MIC [6] | MIC [7] | MIC [8] | MIC [9] | MIC [11] | MIC [12] | MIC [13] | MIC [14] | MIC [16] | MIC [17] | MIC [18] | MIC [19] | MIC [20] | MIC [21] | MIC [22] | other results |
| --- | --- | --- | --- | --- | --- | --- | --- | --- | --- | --- | --- | --- | --- | --- | --- | --- | --- | --- |
| CC(=O)NC[C@H]1CN(c2ccc(N3CCOCC3)c(F)c2)C(=O)O1 [LINEZOLID] | 4 µg/mL (≈ 11.9 µM) | > 64 µg/mL | 2 µg/mL (≈ 5.93 µM) | 1 µg/mL (≈ 2.96 µM) | > 64 µg/mL | 8 µg/mL (≈ 23.7 µM) | > 64 µg/mL | 4 µg/mL (≈ 11.9 µM) | > 64 µg/mL | 1 µg/mL (≈ 2.96 µM) | 0.5 µg/mL (≈ 1.48 µM) |  |  |  |  |  |  | MBC [1]: > 64 µg/mL; MBC [4]: 64 µg/mL (≈ 190 µM); MBC [5]: > 64 µg/mL; MBC [10]: > 64 µg/mL; MBC [15]: 8 µg/mL (≈ 23.7 µM) |
| C[n+]1cc(-c2ccccc2)cc(/C=C/c2cccc(Br)c2)c1-c1ccccc1.[I-] | 8 µg/mL | 64 µg/mL | 16 µg/mL | 4 µg/mL | 64 µg/mL | 16 µg/mL | 16 µg/mL | 16 µg/mL | > 64 µg/mL | 8 µg/mL | 4 µg/mL | 4 µg/mL | 16 µg/mL | 16 µg/mL | 2 µg/mL | 4 µg/mL | 16 µg/mL |  |
| CCCOc1ccc(/C=C/c2cc(-c3ccc(C(C)(C)C)cc3)[n+](C)cc2-c2ccccc2)cc1.[I-] | 1 µg/mL | 4 µg/mL | 1 µg/mL | 2 µg/mL | 8 µg/mL | 1 µg/mL | 2 µg/mL | 1 µg/mL | 8 µg/mL | 2 µg/mL | 0.125 µg/mL | 0.5 µg/mL | 1 µg/mL | 1 µg/mL | 0.5 µg/mL | 0.125 µg/mL | 2 µg/mL |  |
| C[n+]1cc(-c2ccccc2)cc(/C=C/c2ccc(C(F)(F)F)cc2)c1-c1ccccc1.[I-] | 8 µg/mL | > 64 µg/mL | 8 µg/mL | 4 µg/mL | > 64 µg/mL | 16 µg/mL | 16 µg/mL | 8 µg/mL | > 64 µg/mL | 2 µg/mL | 2 µg/mL | 4 µg/mL | 16 µg/mL | 16 µg/mL | 2 µg/mL | 1 µg/mL | 8 µg/mL |  |
| C[n+]1cc(-c2ccccc2)c(/C=C/c2ccc(N3CCCCC3)cc2)cc1-c1ccc(C(C)(C)C)cc1.[I-] | 1 µg/mL | 64 µg/mL | 0.125 µg/mL | 0.5 µg/mL | 8 µg/mL | 1 µg/mL | 1 µg/mL | 1 µg/mL | 4 µg/mL | 2 µg/mL | 0.5 µg/mL | 1 µg/mL | 0.25 µg/mL | 2 µg/mL | 0.5 µg/mL | 0.25 µg/mL | 1 µg/mL |  |
| CCCCCOc1ccc(/C=C/c2cc(-c3ccccc3)[n+](C)cc2-c2ccccc2)cc1.[I-] | 1 µg/mL | 4 µg/mL | 0.5 µg/mL | 2 µg/mL | 4 µg/mL | 0.5 µg/mL | 2 µg/mL | 1 µg/mL | 2 µg/mL | 2 µg/mL | 0.5 µg/mL | 1 µg/mL | 1 µg/mL | 1 µg/mL | 0.5 µg/mL | 0.5 µg/mL | 2 µg/mL |  |
| CC(C)c1ccc(/C=C/c2cc(-c3ccccc3)c[n+](C)c2-c2ccccc2)cc1.[I-] | 4 µg/mL | 16 µg/mL | 2 µg/mL | 2 µg/mL | 32 µg/mL | 4 µg/mL | 8 µg/mL | 4 µg/mL | 32 µg/mL | 2 µg/mL | 1 µg/mL | 2 µg/mL | 4 µg/mL | 4 µg/mL | 0.5 µg/mL | 0.5 µg/mL | 4 µg/mL |  |
| CN(C)[C@@H]1C(O)=C(C(N)=O)C(=O)[C@@]2(O)C(O)=C3C(=O)c4c(O)cccc4[C@@](C)(O)[C@H]3C[C@@H]12 [TETRACYCLINE] | 32 µg/mL (≈ 72 µM) | 0.5 µg/mL (≈ 1.13 µM) | 64 µg/mL (≈ 144 µM) | 1 µg/mL (≈ 2.25 µM) | 32 µg/mL (≈ 72 µM) | 2 µg/mL (≈ 4.5 µM) | 8 µg/mL (≈ 18 µM) | 2 µg/mL (≈ 4.5 µM) | 2 µg/mL (≈ 4.5 µM) | 64 µg/mL (≈ 144 µM) | 0.5 µg/mL (≈ 1.13 µM) | 0.5 µg/mL (≈ 1.13 µM) | 64 µg/mL (≈ 144 µM) | 2 µg/mL (≈ 4.5 µM) | 1 µg/mL (≈ 2.25 µM) | 0.5 µg/mL (≈ 1.13 µM) | 64 µg/mL (≈ 144 µM) |  |
| C[n+]1cc(-c2ccccc2)c(/C=C/c2ccc(F)cc2)cc1-c1ccccc1.[I-] | 2 µg/mL | 8 µg/mL | 2 µg/mL | 2 µg/mL | 32 µg/mL | 4 µg/mL | 8 µg/mL | 8 µg/mL | 8 µg/mL | 2 µg/mL | 0.5 µg/mL | 1 µg/mL | 4 µg/mL | 2 µg/mL | 1 µg/mL | 0.125 µg/mL | 4 µg/mL |  |
| NC(=O)c1c(F)ccc(OCc2nc3cc(Cl)cnc3s2)c1F | > 64 µg/mL | > 64 µg/mL | 0.5 µg/mL (≈ 1.41 µM) | > 64 µg/mL | > 64 µg/mL | > 64 µg/mL | > 64 µg/mL | > 64 µg/mL | > 64 µg/mL | > 64 µg/mL | 0.5 µg/mL (≈ 1.41 µM) | 1 µg/mL (≈ 2.81 µM) | 2 µg/mL (≈ 5.62 µM) | > 64 µg/mL | 1 µg/mL (≈ 2.81 µM) | 1 µg/mL (≈ 2.81 µM) | > 64 µg/mL |  |
| C[n+]1cc(-c2ccccc2)cc(/C=C/c2ccc(F)cc2)c1-c1ccccc1.[I-] | 64 µg/mL | > 64 µg/mL | 32 µg/mL | 8 µg/mL | > 64 µg/mL | 64 µg/mL | 32 µg/mL | 64 µg/mL | > 64 µg/mL | 8 µg/mL | 8 µg/mL | 8 µg/mL | 64 µg/mL | > 64 µg/mL | 8 µg/mL | 2 µg/mL | 64 µg/mL |  |
| C=CC1=C(C(=O)O)N2C(=O)[C@@H](NC(=O)/C(=N\OCC(=O)O)c3csc(N)n3)[C@H]2SC1 [CEFIXIME] | > 64 µg/mL | < 0.062 µg/mL | > 64 µg/mL | < 0.062 µg/mL | > 64 µg/mL | > 64 µg/mL | 32 µg/mL (≈ 70.6 µM) | > 64 µg/mL | < 0.062 µg/mL | < 0.062 µg/mL | 2 µg/mL (≈ 4.41 µM) | 4 µg/mL (≈ 8.82 µM) | > 64 µg/mL | > 64 µg/mL | 8 µg/mL (≈ 17.6 µM) | 1 µg/mL (≈ 2.21 µM) | > 64 µg/mL |  |
| C[n+]1cc(-c2ccccc2)c(/C=C/c2ccc(N3CCCC3)cc2)cc1-c1ccc2ccccc2c1.[I-] | 2 µg/mL | 64 µg/mL | 1 µg/mL | 0.5 µg/mL | 16 µg/mL | 1 µg/mL | 1 µg/mL | 2 µg/mL | 4 µg/mL | 1 µg/mL | 1 µg/mL | 0.5 µg/mL | 1 µg/mL | 2 µg/mL | 0.5 µg/mL | 0.5 µg/mL | 2 µg/mL |  |
| CC[C@H]1OC(=O)[C@H](C)[C@@H](O[C@H]2C[C@@](C)(OC)[C@@H](O)[C@H](C)O2)[C@H](C)[C@@H](O[C@@H]2O[C@H](C)C[C@H](N(C)C)[C@H]2O)[C@](C)(O)C[C@@H](C)CN(C)[C@H](C)[C@@H](O)[C@]1(C)O [AZITHROMYCIN] | > 64 µg/mL | 64 µg/mL (≈ 85.4 µM) | 0.5 µg/mL (≈ 0.668 µM) | 0.03 µg/mL (≈ 0.0401 µM) | 64 µg/mL (≈ 85.4 µM) | 8 µg/mL (≈ 10.7 µM) | 2 µg/mL (≈ 2.67 µM) | > 64 µg/mL | > 64 µg/mL | > 64 µg/mL | 0.25 µg/mL (≈ 0.334 µM) | > 64 µg/mL | > 64 µg/mL | > 64 µg/mL | > 64 µg/mL | 0.25 µg/mL (≈ 0.334 µM) | 1 µg/mL (≈ 1.34 µM) |  |
| C[n+]1cc(-c2ccccc2)c(/C=C/c2ccc(O)cc2)cc1-c1ccccc1.[I-] | 16 µg/mL | > 64 µg/mL | 32 µg/mL | 4 µg/mL | 64 µg/mL | 64 µg/mL | 32 µg/mL | 64 µg/mL | > 64 µg/mL | 16 µg/mL | 8 µg/mL | 32 µg/mL | 64 µg/mL | 64 µg/mL | 16 µg/mL | 2 µg/mL | 64 µg/mL |  |
